Test results from patent US10745355B2, “Anti-cancer compounds” (THE UNIVERSITY OF SYDNEY, priority 2015, dated 2020).

Legend:
U87 [1] = experiment: Alamar blue cell viability assay, U87 cells; format: cell-based; settings: Homo sapiens, U-87 MG; 72 hours of treatment; mean±SEM, three independent experiments
Experimental: (§1) U87 and U251 cell lines were obtained from the European Collection of Cell Cultures (ECACC) through CellBank Australia. U87-EGFRvIII cell line was obtained from their lab of origin (Nishikawa et al., 1994, Proc Natl Acad Sci USA 91: 7727-7731) and tested for EGFR amplification and mutation by immunoblotting and flow cytometry. Cells were cultured in DMEM medium (Invitrogen by Life Technologies, Carlsbad, Calif., USA) supplemented with 10% FBS (Sigma-Aldrich) at 37° C. and 5% CO2. Primary gliomaspheres (RN1, classical; WK1, mesenchymal) were derived from glioblastoma specimens (Day et al., 2013, Cancers 5: 357-371; Day et al., 2013, Cancer Cell 23: 238-248), maintained in StemPro NSC serum-free media supplemented with EGF and FGF (all Life Technologies), and grown on matrigel-coated flasks (Pollard et al., 2009, Cell Stem Cell 4: 568-580).
(§2) Cell viability was determined using Alamar blue assay after 72 hours of treatment (Table 2). EC50 values were calculated using non-linear regression on Graph Pad Prism version 5. c Log P values calculated using ChemBioDraw Software. Results are mean±SEM from three independent experiments performed in triplicates.

U87vIII [2] = experiment: Alamar blue cell viability assay, U87vIII cells; format: cell-based; settings: 72 hours of treatment; mean±SEM, three independent experiments
Experimental: as §1, §2

U251 = experiment: Alamar blue cell viability assay, U251 cells; format: cell-based; settings: Homo sapiens, U-251; 72 hours of treatment; mean±SEM, three independent experiments
Experimental: as §1, §2

[3] = system: RN1 gliomaspheres (classical); experiment: AlamarBlue cell viability assay, RN1 gliomaspheres; format: cell-based; settings: 72 h of drug treatment, FIG. 11A
Experimental: (§3) FIGS. 11A-11B. Efficacy of SC-38 (referred to as “CMPD1”), compound 1-08 (referred to as “cmpd 13”), compound 1-18 (referred to as “cmpd 7”), and compound 1-38 (referred to as “cmpd 10”) in primary gliomaspheres representing two glioblastoma subtypes. (11A) RN1, classical, and (11B) WK1, mesenchymal. Cellular efficacy (EC50) of test compounds was determined using AlamarBlue cell viability assay after 72 h of drug treatment. Data are mean±SEM from 3 independent experiments performed in triplicate.
as §1, with “568-580). […]” for “568-580).”

[4] = system: WK1 gliomaspheres (mesenchymal); experiment: AlamarBlue cell viability assay, WK1 gliomaspheres; format: cell-based; settings: 72 h of drug treatment, FIG. 11B
Experimental: as §3, §1
The effect of SC-38, and compounds 1-08, 1-18 and 1-38 in a cell viability assay employing patient-derived gliomaspheres was also investigated. RN1 gliomaspheres representing glioblastoma of the classical subtype were most responsive to the treatment (FIG. 11, where SC-38 is referred to as “CMPD1”, compound 1-08 is referred to as “compound 13”, compound 1-18 is referred to as “compound 7”, and compound 1-38 is referred to as “compound 10”).

U87 [5] = experiment: Annexin-FITC/7-AAD apoptosis assay, U87 cells; format: cell-based; settings: 48 hours treatment
Experimental: (§4) FIGS. 4A-4D. […] U87 (4A-4B) and U87vIII (4C-4D) cells were treated with SC-38 for 48 hours and stained with Annexin-FITC/7-AAD. Apoptotic cells were visualized using the MUSE cell analyzer (Millipore).
(§5) FIGS. 6A-6D. […] U87 (A B) (6A-6B) and U87vIII (6C-6D) cells were treated with compound 1-08 for 48 hours and stained with Annexin-FITC/7-AAD. Apoptotic cells were visualized using the MUSE cell analyzer (Millipore). Results are means±SEM from 3 independent experiments. One-way ANOVA followed by Dunnet post-test was used to calculate statistical significance (***P<0.001).
(§6) U87 (FIGS. 4, A-B) and U87vIII (FIG. 4, C-D) cells were treated with SC-38 for 48 hours and stained with Annexin-FITC/7-AAD. Apoptotic cells were visualized using the MUSE cell analyzer (Millipore). Results are means±SEM from 3 independent experiments. One-way ANOVA followed by Dunnet post-test was used to calculate statistical significance (**P<0.01, ***P<0.001)
as §6, with “6,” for “4,”, “compound 1-08” for “SC-38”, “three” for “3”, “(***P<0.001).” for “(**P<0.01, ***P<0.001)”

U87vIII [6] = experiment: Annexin-FITC/7-AAD apoptosis assay, U87vIII cells; format: cell-based; settings: 48 hours treatment
Experimental: as §4, §5, §6
as §6, with “6,” for “4,”, “compound 1-08” for “SC-38”, “three” for “3”, “(***P<0.001).” for “(**P<0.01, ***P<0.001)”

glioma cell lines = experiment: Viability (Alamar Blue) and cytotoxicity (ToxiLight) in glioma cell lines; format: cell-based; settings: 10 nM-10 μM, 72 hours
Experimental: Cells were treated with SC-38 (10 nM-10 μM) for 72 hours. Cells were subjected to viability testing (left, Alamar Blue viability assay, Invitrogen) and supernatant harvested for bioluminescent cytotoxicity analysis (right, ToxiLight™ bioassay kit, Lonza).

[7] = Brain uptake in BALB/c mice; format: in vivo; settings: 10 mg/kg intraperitoneally, brains harvested at 30 and 60 min, HPLC
Experimental: BALB/c mice were injected intraperitoneally with tested inhibitor (10 mg/kg) and brains harvested at 30 and 60 min. Solid-phase extraction was performed using brain homogenates and the amount of the test compound was determined with HPLC. Lapatinib data are from Polli, J. W. et al. “The Role of Efflux and Uptake Transporters in N-{3-Chloro-4-[(3-fluorobenzyl)oxy]phenyl}-6-[5-({[2-(methylsulfonyl)ethyl]amino}methyl)-2-furyl]-4-quinazolinamine (GW572016, Lapatinib) Disposition and Drug Interactions”, Drug Metabolism and Disposition 36, 695-701 (2008).

Porcine brain tubulin = target: T1, Porcine brain tubulin (Sus scrofa, UniProt P02550+P02554); experiment: Fluorescence-based tubulin polymerisation assay; format: biochemical; settings: 37° C., FIG. 10A
T1 construct: purchased Cytoskeleton, Colo., USA (Tubulin Polymerisation Assay kit); host or cells: porcine brain (tissue-purified)
T1 sequence (P02550 whole entry): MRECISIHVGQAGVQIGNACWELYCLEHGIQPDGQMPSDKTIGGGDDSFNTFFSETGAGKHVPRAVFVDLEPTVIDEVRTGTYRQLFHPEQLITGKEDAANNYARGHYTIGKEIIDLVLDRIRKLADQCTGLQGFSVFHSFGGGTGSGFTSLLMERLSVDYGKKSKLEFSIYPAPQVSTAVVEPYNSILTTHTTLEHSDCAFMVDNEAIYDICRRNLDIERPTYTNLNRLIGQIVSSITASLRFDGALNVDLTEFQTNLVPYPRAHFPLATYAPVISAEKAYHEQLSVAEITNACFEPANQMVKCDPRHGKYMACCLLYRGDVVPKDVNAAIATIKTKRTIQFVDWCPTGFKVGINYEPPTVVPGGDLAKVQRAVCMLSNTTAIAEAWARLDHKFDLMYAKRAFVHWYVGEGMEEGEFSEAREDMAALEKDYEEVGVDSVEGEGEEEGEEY
T1 sequence (P02554 whole entry): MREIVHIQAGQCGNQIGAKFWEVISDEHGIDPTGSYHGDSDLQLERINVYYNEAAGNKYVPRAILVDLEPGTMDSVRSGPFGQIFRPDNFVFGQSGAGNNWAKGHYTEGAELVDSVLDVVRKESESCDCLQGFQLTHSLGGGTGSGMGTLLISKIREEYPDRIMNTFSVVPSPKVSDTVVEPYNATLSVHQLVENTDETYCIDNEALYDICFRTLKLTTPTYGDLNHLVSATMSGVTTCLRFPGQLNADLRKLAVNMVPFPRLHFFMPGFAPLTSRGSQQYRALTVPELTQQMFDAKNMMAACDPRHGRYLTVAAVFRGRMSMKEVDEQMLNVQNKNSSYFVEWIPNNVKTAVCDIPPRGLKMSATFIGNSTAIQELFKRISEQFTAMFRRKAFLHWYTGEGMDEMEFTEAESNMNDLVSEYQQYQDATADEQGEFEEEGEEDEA
Experimental: FIGS. 10A-10D. […] (10A) Compound 1-08 inhibits tubulin polymerisation in vitro. Data are expressed as mean from at least 3 independent experiments; each data point was performed in triplicates. (10B) U87 cells treated with compound 1-08 (24 h) were stained with Alexa488-labelled anti-β-tubulin antibody (green) or DAPI (blue). Treatment profoundly disturbed the microtubule network and caused formation of multinucleated cell (white arrows). White scale bar represents 50 μm. Multinucleated cells were manually counted and at least 200 cells were counted for each sample. Data in the bar graph (10C) are expressed as mean±SEM (n=3; * P<0.05, *** P<0.001; 1-way ANOVA followed by Newman-Keuls posttest). (10D) U87 cells were treated with compound 1-08 (48 h), tubulin and DNA were stained as in (10B). Treatment with 1-08 caused defective mitotic spindle formation. Representative images from 3 independent experiments are shown. White scale bar represents 2 μm.
The effect of compound 1-08 on tubulin polymerisation and mitotic spindle formation was also investigated. The fluorescence-based tubulin polymerisation assay was conducted in the final volume of 55 μL using the Tubulin Polymerisation Assay kit (Cytoskeleton, Colo., USA) as per the manufacturer's instructions. Porcine brain tubulin was incubated with test compounds (paclitaxel, vinblastine and compound 1-08) at 37° C. and fluorescence was measured using FLUOstar Omega microplate reader (BMG Labtech, Ortenberg, Germany; excitation at 355 nm and emission at 460 nm). […] To test whether compound 1-08 alters microtubules in vivo, U87 glioblastoma cells were treated with compound 1-08 and the effect on the microtubules was determined by immunofluorescence staining of β-tubulin. […] The consequence of microtubule depolymerisation induced by compound 13 was disrupted spindle assembly (FIG. 10D). In untreated U87 cells undergoing mitosis, microtubules are assembled into bipolar spindles (control images).

Row | EC50 (U87 [1]) | EC50 (U87vIII [2]) | EC50 (U251) | SMILES | also measured
1 | 4.6 ± 0.8 µM | 4.3 ± 0.3 µM | 1.2 ± 0.1 µM | O=C(CCCc1ccc(-c2cccnc2)cc1)Nc1ccc(O)cc1 [Compound 1-38, N-(4-hydroxyphenyl)-4-(4-(pyridin-3-yl)phenyl)butanamide] | –
2 | 2.9 ± 0.9 µM | 3.4 ± 0.4 µM | 1.65 ± 0.1 µM | O=C(CCCc1ccc(-c2ccc(F)nc2F)cc1)Nc1ccc(O)cc1 [Compound 1-22, 4-(4-(2,6-difluoropyridin-3-yl)phenyl)-N-(4-hydroxyphenyl)butanamide] | –
3 | 0.38 ± 0.1 µM | 0.68 ± 0.1 µM | 0.43 ± 0.1 µM | O=C(CCCc1ccc(-c2ccccc2F)cc1)Nc1ccc(O)cc1 [SC-38, reference compound] | EC50 [3]: 0.26 µM; EC50 [4]: 0.91 µM; apoptosis, U87 (U87 [5]): induced apoptosis; apoptosis, U87vIII (U87vIII [6]): induced apoptosis; viability of glioma cell lines (glioma cell lines; Alamar Blue): decreases viability of glioma cell lines; cytotoxicity (ToxiLight) (glioma cell lines; supernatant): selectively cytotoxic

Continued, molecule first:

Row | SMILES | EC50 (U87 [1]) | EC50 (U87vIII [2]) | EC50 (U251) | also measured
4 | O=C(CCCc1ccc(-c2ccc(F)nc2)cc1)Nc1ccc(O)cc1 [Compound 1-21, 4-(4-(6-fluoropyridin-3-yl)phenyl)-N-(4-hydroxyphenyl)butanamide] | 4.8 ± 1.2 µM | > 10 µM | > 10 µM | –
5 | COc1ncc(-c2ccc(CCCC(=O)Nc3ccc(O)cc3)cc2)cn1 [Compound 1-19, N-(4-hydroxyphenyl)-4-(4-(2-methoxypyrimidin-5-yl)phenyl)butanamide] | > 10 µM | > 10 µM | > 10 µM | –
6 | O=C(CCCc1ccc(-c2cccnc2F)cc1)Nc1ccc(O)cc1 [Compound 1-18, 4-(4-(2-fluoropyridin-3-yl)phenyl)-N-(4-hydroxyphenyl)butanamide] | 1.4 ± 0.2 µM | 1.7 ± 0.1 µM | 1.6 ± 0.2 µM | EC50 [4]: 2 µM; brain uptake / crossing of the BBB [7]: readily crossed the BBB
7 | O=C(CCCc1ccc(Br)cc1)Nc1ccc(O)cc1 [Compound 1-17, 4-(4-bromophenyl)-N-(4-hydroxyphenyl)butanamide] | > 10 µM | > 10 µM | > 10 µM | –
8 | NCc1ccc(-c2ccc(CCCC(=O)Nc3ccc(O)cc3)cc2)cc1 [Compound 1-07, 4-(4′-(aminomethyl)-[1,1′-biphenyl]-4-yl)-N-(4-hydroxyphenyl)butanamide] | 1.8 ± 0.3 µM | 3.1 ± 1 µM | 1.5 ± 0.3 µM | –
9 | O=C(CCCc1ccc(-c2cccnc2F)cc1)Nc1ccccc1 [Compound 1-20, 4-(4-(2-fluoropyridin-3-yl)phenyl)-N-phenylbutanamide] | 6.6 ± 0.9 µM | > 10 µM | 4.6 ± 0.2 µM | –
10 | O=C(CCCc1ccc(-c2cncnc2)cc1)Nc1ccc(O)cc1 [Compound 1-01, N-(4-hydroxyphenyl)-4-(4-(pyrimidin-5-yl)phenyl)butanamide] | > 10 µM | > 10 µM | > 10 µM | –
11 | CC[C@]1(O)C[C@@H]2CN(CCc3c([nH]c4ccccc34)[C@@](C(=O)OC)(c3cc4c(cc3OC)N(C)[C@H]3[C@@](O)(C(=O)OC)[C@H](OC(C)=O)[C@]5(CC)C=CCN6CC[C@]43[C@@H]65)C2)C1 [vinblastine] | – | – | – | effect on tubulin polymerisation compared to control (Porcine brain tubulin): inhibited tubulin polymerisation in a dose-dependent manner
12 | CC(=O)O[C@H]1C(=O)[C@@]2(C)[C@H]([C@H](OC(=O)c3ccccc3)[C@]3(O)C[C@H](OC(=O)[C@H](O)[C@@H](NC(=O)c4ccccc4)c4ccccc4)C(C)=C1C3(C)C)[C@]1(OC(C)=O)CO[C@@H]1C[C@@H]2O [paclitaxel] | – | – | – | effect on tubulin polymerisation compared to control (Porcine brain tubulin): enhanced tubulin polymerisation
